SMILES strings stand for the structures. Structures can show the parent of a compound that is named as a salt.

Regarding `COc1cc2ncnc(Nc3cc(Cl)ccc3O)c2cc1OC` (as salt: salt) [P-93, 4-(3′-Chlooro-6′-hydroxylphenyl)amino-6,7-dimethoxyquinazoline], the melting point was 295 °C (dec.).

Molecule `COc1cc2ncnc(Nc3ccc(C)c(Br)c3)c2cc1OC` (as salt: salt) [P-111, 4-(3′-Bromo-4′-methylphenyl)-amino-6,7-dimethoxyquinazoline] returned a melting point of 225 to 228 °C. `COc1cc2ncnc(Nc3c(F)c(F)c(Br)c(F)c3F)c2cc1OC` (as salt: salt) [P-144, 4-(2′,3′,5′,6′-Tetrafluoro-4′-bromolphenyl)-amino-6,7-dime-thoxyquinazoline]: the melting point lay in the range of 180 to 182 °C.

In turn, `COc1cc2ncnc(Nc3ccc4c(c3)Cc3cc(Br)ccc3-4)c2cc1OC` (as salt: salt) [P-160, 4-[(7′-Bromofluorene)-2]-amino-6,7-dimethoxyquinazoline] registered a melting point of 254 to 256 °C. As for `COc1cc2ncnc(Nc3ccc(Br)cc3CO)c2cc1OC` (as salt: salt) [P-190, 4-(4′-Bromo-6′-hydroxymethylphenyl)-amino-6,7-dimethoxyquinazoline], the figure is 222 to 223 °C; as for `COc1cc2ncnc(Nc3cc(Br)c(C)cc3Br)c2cc1OC` (as salt: salt) [P-211, 4-(2′,5′-Dibromo-4′-methylphenyl)-amino-6,7-dimethoxyquinazoline], 282 to 284 °C; as for `COc1cc2ncnc(Nc3ccccc3Br)c2cc1OC` (as salt: salt) [P-261, 4-(2′-Bromophenyl)-amino-6,7-dimethoxyquinazoline], 241 to 243 °C. Next, `COc1cc2ncnc(Nc3ccccc3I)c2cc1OC` (as salt: salt) [P-270, 4-(2′-Iodophenyl)-amino-6,7-dimethoxyquinazoline]: 225 to 230 °C; `COc1cc2ncnc(Nc3c(O)ccc4ccccc34)c2cc1OC` (as salt: salt) [P-275, 4-(2′-Naphthol-1)-amino-6,7-dimethoxyquinazoline]: 218 to 220 °C. Next, `COc1cc2ncnc(Nc3ccc(O)cc3Cl)c2cc1OC` (as salt: salt) [P-278, 4-(4′-Hydroxyl-2′-chlorophenyl)-amino-6,7-dimethoxy-quinazoline]: 245 to 247 °C. For `COc1cc2ncnc(Nc3cccc4c(O)cccc34)c2cc1OC` (as salt: salt) [P-293, 4-(1′-Hydroxy-naphthyl-5′)-amino-6,70-dimethoxyquina-zoline], the melting point fell in the range of 204 to 205 °C.

Regarding `COc1cc2ncnc(Nc3cc(I)c(O)c(I)c3)c2cc1OC` (as salt: salt) [P-294, 4-(4′-Hydroxy-3,5-diiodophenyl)-amino-6,7-dimethoxy-quinazoline], the melting point lay in the range of 259 to 260 °C. As for `COc1cc2ncnc(Nc3ccc(O)c(I)c3)c2cc1OC` (as salt: salt) [P-299, 4-(4′-Hydroxy-3′-iodophenyl)-amino-6,7-dimethoxyquinazoline], the figure is 248 to 250 °C; as for `COc1cc2ncnc(Nc3ccc(I)cc3)c2cc1OC` (as salt: salt) [P-300, 4-(4′-Iodophenyl)-amino-6,7-dimethoxyquinazoline], 240 to 242 °C; as for `COc1cc2ncnc(Nc3ccc(C(c4ccc(N)cc4)(C(F)(F)F)C(F)(F)F)cc3)c2cc1OC` (as salt: salt) [P-352, 4-{4′-[2″-(4″′-Aminophenyl)-hexafluoropropyl]phenyl}-amino-6,7-dimethoxyquinazoline], 280 to 282 °C. As for `COc1cc2ncnc(Nc3ccccc3OC(F)(F)F)c2cc1OC` (as salt: salt) [P-365, 4-(2′-Trifluoromethoxylphenyl)-amino-6,7-dimethoxyquinazoline], the melting point lay within 235 to 237 °C.

In turn, `COc1cc2ncnc(Nc3cc(C(F)(F)F)cc(C(F)(F)F)c3)c2cc1OC` (as salt: salt) [P-366, 4-(3′,5′-Ditrifluoromethylphenyl)-amno-6,7-dimethoxyquinazoline] had a melting point of 270 to 272 °C.
